Assay results from US8304236B2, “Modified biotin-binding protein” (Japan Tobacco Inc., priority 2008, dated 2012).
Where two headings read alike, the source gives them in different places.

What was measured:
[1] = molecular target: tamavidin 2 (TM2) variant TM2 K33TK37AR104E, SEQ ID NO: 14 (Pleurotus cornucopiae, UniProt B9A0T7, K33T/K37A/R104E); assay: Biacore 3000 biotin-binding test of low-pI TM2 (Example 1); conditions: BSA-LCLC-Biotin (30.5 Å) immobilized; 25° C.
Method: (§1) HBS-EP (Biacore) was used as a running buffer, and each low-pI TM2 (40 μL) was injected at 25° C. and a flow rate of 20 μL/min for 2 minutes.
(§2) From the resulting sensorgrams, the binding rate constant (ka), the dissociation rate constant (kd), and the dissociation constant (KD) were calculated using an analysis software, BIAevaluation version 4.1.

[2] = molecular target: T1, tamavidin 2 (TM2), wild type, SEQ ID NO: 2, Pleurotus cornucopiae (Pleurotus cornucopiae, UniProt B9A0T7); assay: as above; conditions: 25° C.
T1 sequence (B9A0T7 1-141): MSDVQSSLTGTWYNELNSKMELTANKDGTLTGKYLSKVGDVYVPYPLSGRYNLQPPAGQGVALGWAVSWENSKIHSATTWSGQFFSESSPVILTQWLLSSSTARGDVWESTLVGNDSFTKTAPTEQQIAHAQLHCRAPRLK
Method: as §1, §2

[3] = molecular target: tamavidin 2 (TM2) variant TM2 R104E, SEQ ID NO: 8 (Pleurotus cornucopiae, UniProt B9A0T7, R104E); assay: as above; conditions: BSA-LCLC-Biotin (30.5 Å) immobilized; 25° C.
Chain of tamavidin 2 (TM2) variant TM2 R104E, SEQ ID NO: 8 (B9A0T7 entry or part of it R104E): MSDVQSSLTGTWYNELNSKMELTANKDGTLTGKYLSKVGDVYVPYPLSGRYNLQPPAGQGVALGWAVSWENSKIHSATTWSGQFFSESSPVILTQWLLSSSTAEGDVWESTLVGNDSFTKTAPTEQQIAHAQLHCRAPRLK
Method: (3) a TM2 mutant in which arginine at position 104 was replaced with glutamic acid (hereinafter referred to as “TM2 R104E; its nucleotide sequence is listed in SEQ ID NO: 7, and the amino acid sequence in SEQ ID NO: 8);
as §1, §2

[4] = molecular target: tamavidin 2 (TM2) variant TM2 K141E, SEQ ID NO: 10 (Pleurotus cornucopiae, UniProt B9A0T7, K141E); assay: as above; conditions: BSA-LCLC-Biotin (30.5 Å) immobilized; 25° C.
Chain of tamavidin 2 (TM2) variant TM2 K141E, SEQ ID NO: 10 (B9A0T7 entry or part of it K141E): as the sequence (B9A0T7 entry or part of it R104E) above, with E104R, K141E counted along it
Method: (4) a TM2 mutant in which lysine at position 141 was replaced with glutamic acid (hereinafter referred to as “TM2 K141E; its nucleotide sequence is listed in SEQ ID NO: 9, and the amino acid sequence in SEQ ID NO: 10);
as §1, §2

[5] = molecular target: tamavidin 2 (TM2) variant TM2 K33TK37A, SEQ ID NO: 12 (Pleurotus cornucopiae, UniProt B9A0T7, K33T/K37A); assay: as above; conditions: BSA-LCLC-Biotin (30.5 Å) immobilized; 25° C.
Chain of tamavidin 2 (TM2) variant TM2 K33TK37A, SEQ ID NO: 12 (B9A0T7 entry or part of it K33T/K37A): as the sequence (B9A0T7 entry or part of it R104E) above, with K33T, K37A, E104R counted along it
Method: (5) a TM2 mutant in which lysine at position 33 was replaced with threonine, and lysine at position 37 was replaced with alanine (hereinafter referred to as “TM2 K33TK37A”; its nucleotide sequence is listed in SEQ ID NO: 11, and the amino acid sequence in SEQ ID NO: 12);
as §1, §2

[6] = molecular target: tamavidin 2 (TM2) variant TM2 K26A, SEQ ID NO: 4 (Pleurotus cornucopiae, UniProt B9A0T7, K26A); assay: as above; conditions: SA-LC-Biotin (22.4 Å) immobilized; 25° C.
Chain of tamavidin 2 (TM2) variant TM2 K26A, SEQ ID NO: 4 (B9A0T7 entry or part of it K26A): as the sequence (B9A0T7 entry or part of it R104E) above, with K26A, E104R counted along it
Method: (1) a TM2 mutant in which lysine at position 26 was replaced with alanine (hereinafter referred to as “TM2 K26A”; its nucleotide sequence is listed in SEQ ID NO: 3 and the amino acid sequence in SEQ ID NO: 4);
as §1, §2

[7] = molecular target: tamavidin 2 (TM2) variant TM2 K73Q, SEQ ID NO: 6 (Pleurotus cornucopiae, UniProt B9A0T7, K73Q); assay: as above; conditions: SA-LC-Biotin (22.4 Å) immobilized; 25° C.
Chain of tamavidin 2 (TM2) variant TM2 K73Q, SEQ ID NO: 6 (B9A0T7 entry or part of it K73Q): as the sequence (B9A0T7 entry or part of it R104E) above, with K73Q, E104R counted along it
Method: (2) a TM2 mutant in which lysine at position 73 was replaced with glutamine (hereinafter referred to as “TM2 K73Q”; its nucleotide sequence is listed in SEQ ID NO: 5, and the amino acid sequence in SEQ ID NO: 6);
as §1, §2

[8] = molecular target: tamavidin 2 (TM2) variant TM2 R104EK141E, SEQ ID NO: 16 (Pleurotus cornucopiae, UniProt B9A0T7, K141E/R104E); assay: as above; conditions: SA-LC-Biotin (22.4 Å) immobilized; 25° C.
Chain of tamavidin 2 (TM2) variant TM2 R104EK141E, SEQ ID NO: 16 (B9A0T7 entry or part of it R104E/K141E): as the sequence (B9A0T7 entry or part of it R104E) above, with K141E counted along it
Method: (7) a TM2 mutant in which arginine at position 104 was replaced with glutamic acid, and lysine at position 141 was replaced with glutamic acid (hereinafter referred to as “TM2 R104EK141E”; its nucleotide sequence is listed in SEQ ID NO: 15, and the amino acid sequence in SEQ ID NO: 16).
as §1, §2

[9] = tested on: tamavidin 2 (TM2) variant TM2 D40N, SEQ ID NO: 20; assay: Biacore 3000 biotin-binding test (Example 2); set-up: species or system Pleurotus cornucopiae; conditions: Biotin-LC-BSA
Method: As described above, a TM2 mutant in which aspartic acid at position 40 was replaced with asparagine (hereinafter referred to as “TM2 D40N”; its nucleotide sequence SEQ ID NO: 19, and the amino acid sequence in SEQ ID NO: 20) was constructed.
The solution was put into a dialysis tube (MWCO 6-8,000) and was dialyzed with 50 mM sodium carbonate (pH 6.7) at 4° C. overnight.
The amount for immobilization was adjusted to about 200 RU.
Accordingly, seven step measurement (3.125, 6.25, […], 25, 50, 100, and 200 nM) was conducted from the lowest concentration, without recycling steps. […] The measurement was performed at 25° C. The resulting sensorgrams were subjected to reaction kinetics analysis using analysis software BIAevaluation ver. 4.1 with a 1:1 binding model to calculate the binding rate constant (ka) and the dissociation rate constant (kd). The dissociation constant (KD) was determined from kd/ka. In the case where no recycling step is employed, the Rmax (maximum amount of binding analyte) decreases at each measurement. Accordingly, in the analysis, the Rmax was calculated by conducting local fitting for each concentration, and only the data of analyte concentrations that were approximated to the 1:1 binding model was employed.

[10] = molecular target: T1, tamavidin 2 (TM2), wild type, SEQ ID NO: 2, Pleurotus cornucopiae; assay: Biacore 3000 biotin binding test (Example 3); conditions: Biotin-BSA (22.4 Å) immobilized
Method: TM2 and HALU TM2 used as analytes were prepared by purification with 2-iminobiotin agarose in accordance with a common method and dialysis with 20MM KPi (pH 7) overnight. The analytes were each adjusted to about 50 μg/mL in 10 mM acetate buffer (pH 5, Biacore).
The immobilization of the ligand and measurement and analysis of specific interaction with the analytes were conducted as in paragraph 2-7-2).

[11] = molecular target: T1, tamavidin 2 (TM2), wild type, SEQ ID NO: 2, Pleurotus cornucopiae; conditions: WO2008/081938 A1; cited from earlier work
streptavidin = conditions: similarly measured; WO2008/081938 A1; cited from earlier work
[12] = molecular target: T1, tamavidin 2 (TM2), wild type, SEQ ID NO: 2, Pleurotus cornucopiae; assay: Biacore 3000 iminobiotin binding test (Example 2); conditions: Iminobiotin-BSA analyte, protein immobilized, pH 11, 25° C.
Method: These samples were diluted with 10 mM acetate buffer (pH 5, Biacore) into about 50 μg/mL.
Immobilization was performed at 25° C. and a flow rate of 10 μL/min using HBS-EP (Biacore) as a running buffer. The TM2 and the TM2 mutant (about 4000 to 8000 RU) were immobilized on CM5 sensor chips (Biacore) by amine coupling. The activating time was set to 10 minutes.
The specific interaction was measured using iminobiotin BSA as an analyte (a material flowing in a flow channel) at 25° C. and a flow rate of 20 μL/min and using a CAPS buffer (50 mM CAPS, 150 mM NaCl, 0.005% Tween 20, pH 11) as the running buffer. Iminobiotin BSA was produced as follows: A highly purified BSA (Sigma, 2 mg) and NHS-iminobiotin (Pierce, 1 mg) were dissolved in 50 mM sodium borate (pH 8.0, 1 mL), followed by incubation at 4° C. for 2 hours. […] Subsequently, the iminobiotin-BSA produced by the process described above was similarly measured with the same flow cell.
Each constant of samples showing interaction was calculated using analysis software BIAevaluation ver. […] The dissociation constant (KD) was determined from kd/ka. […] Accordingly, in the analysis, the Rmax was calculated by conducting local fitting for each concentration, and only the results at concentrations (mainly 18.75 to 75 nM) approximated to the 1:1 (Langmuir) binding model were employed.

Chain of tamavidin 2 (TM2) variant TM2 K33TK37AR104E, SEQ ID NO: 14 (B9A0T7 entry or part of it K33T/K37A/R104E): as the sequence (B9A0T7 entry or part of it R104E) above, with K33T, K37A counted along it

SMILES	binding rate constant (ka) [1]	binding rate constant (ka) ([2]; BSA-LCLC-Biotin (30.5 Å) immobilized)	binding rate constant (ka) ([2]; SA-LC-Biotin (22.4 Å) immobilized)	binding rate constant (ka) [3]	binding rate constant (ka) [4]	binding rate constant (ka) [5]	binding rate constant (ka) [6]	binding rate constant (ka) [7]	binding rate constant (ka) [8]	change of binding rate constant (ka) compared to TM2 [9]	change of dissociation rate constant (kd) compared to TM2 [9]	binding rate constant (ka) [10]	binding rate constant (ka) [11]	dissociation rate constant (kd) [11]	binding rate constant (ka) (streptavidin)	dissociation rate constant (kd) (streptavidin)	kon ([12]; read-out: binding rate constant (ka))	koff ([12]; read-out: dissociation rate constant (kd))
O=C(O)CCCC[C@@H]1SC[C@@H]2NC(=O)N[C@@H]21 [biotin, D-[(+)-cis-hexahydro-2-oxo-1H-thieno-(3,4)-imidazole-4-valerate]]	6.3 × 10^5	9.2 × 10^5	9.9 × 10^5	5.8 × 10^5	5.8 × 10^5	2.5 × 10^5	5.0 × 10^5	5.9 × 10^5	1.2 × 10^6	increased	decreased	9.9 × 10^5	919000 M⁻¹ s⁻¹	6.83e-06 s⁻¹	2.28e+06 M⁻¹ s⁻¹	2.52e-06 s⁻¹		
N=C1N[C@H]2[C@H](CS[C@H]2CCCCC(=O)O)N1 [iminobiotin]																	130000 ± 5e+09 M⁻¹ s⁻¹	0.0013 ± 6e-07 s⁻¹
